Measurements reported in patent publication US6096930A, “Herbicidal cyclohexane-1,3-dione derivatives and their preparation process” (Korea Research Institute of Chemical Technology, priority 1994, dated 2000).

Columns and labels:
Experiment in all cases: Herbicidal activity, upland test, post-emergence
Type in all cases: in vivo
ABUTH = system: ABUTH
Description: (§1) The sterilized sandy loam soil is filled in test pot having a surface area of 348 cm^2 for upland test conditions or 115 cm^2 for paddy test species were planted in furrows.
(§2) The pots for the post-emergent tests were placed in a greenhouse and watered for 9~14 days, then the foliage of test plants was sprayed with a solution of the test compound in a mixture of acetone and water containing a small amount of Tween 20.
(§3) After spraying the plants were kept for one day, then watered regularly for 14 to 21 days, and herbicidal activity data were recorded.
(§4) The herbicidal activity data were taken visually by percent control, wherein 0 signifies no herbicidal effect and 100 signifies complete kill.

ORYSA = system: ORYSA
Description: as §1, §2, §3, §4

GLXMX = system: GLXMX
Description: as §1, §2, §3, §4

AESIN = system: AESIN
Description: as §1, §2, §3, §4

SORBI = system: SORBI
Description: as §1, §2, §3, §4

ECHOR = system: ECHOR
Description: as §1, §2, §3, §4

ZEAMX = system: ZEAMX
Description: as §1, §2, §3, §4

TRZAW = system: TRZAW
Description: as §1, §2, §3, §4

DIGSA = system: DIGSA
Description: as §1, §2, §3, §4

GOSHI = system: GOSHI
Description: as §1, §2, §3, §4

BROJA = system: BROJA
Description: as §1, §2, §3, §4

PANDI = system: PANDI
Description: as §1, §2, §3, §4

CCON=C(CC)C1=C(O)CC(c2c(C)c(C)c3c(c2C)CC(C)(C)C3)CC1=O (centres unmarked) [Compound 2]
50 % inhibition: Herbicidal activity, GOSHI (GOSHI; 1.250 kg/ha)
40 % inhibition: Herbicidal activity, ORYSA (ORYSA; 0.063 kg/ha) | Herbicidal activity, GLXMX (GLXMX; 1.250 kg/ha) | Herbicidal activity, ZEAMX (ZEAMX; 0.016 kg/ha) | Herbicidal activity, TRZAW (TRZAW; 0.063 kg/ha) | Herbicidal activity, GOSHI (GOSHI; 0.063 kg/ha) | Herbicidal activity, PANDI (PANDI; 0.016 kg/ha)
0 % inhibition: Herbicidal activity, ABUTH (ABUTH; 0.016 kg/ha) | Herbicidal activity, ABUTH (ABUTH; 0.063 kg/ha) | Herbicidal activity, ABUTH (ABUTH; 1.000 kg/ha) | Herbicidal activity, ABUTH (ABUTH; 1.250 kg/ha) | Herbicidal activity, ORYSA (ORYSA; 0.004 kg/ha) | Herbicidal activity, GLXMX (GLXMX; 0.004 kg/ha) | Herbicidal activity, GLXMX (GLXMX; 0.016 kg/ha) | Herbicidal activity, AESIN (AESIN; 0.004 kg/ha) | Herbicidal activity, AESIN (AESIN; 0.016 kg/ha) | Herbicidal activity, AESIN (AESIN; 0.063 kg/ha) | Herbicidal activity, AESIN (AESIN; 1.000 kg/ha) | Herbicidal activity, AESIN (AESIN; 1.250 kg/ha) | Herbicidal activity, SORBI (SORBI; 0.004 kg/ha) | Herbicidal activity, SORBI (SORBI; 0.016 kg/ha) | Herbicidal activity, ZEAMX (ZEAMX; 0.004 kg/ha) | Herbicidal activity, TRZAW (TRZAW; 0.004 kg/ha) | Herbicidal activity, TRZAW (TRZAW; 0.016 kg/ha) | Herbicidal activity, GOSHI (GOSHI; 0.004 kg/ha) | Herbicidal activity, GOSHI (GOSHI; 0.016 kg/ha) | Herbicidal activity, BROJA (BROJA; 0.004 kg/ha) | Herbicidal activity, BROJA (BROJA; 0.016 kg/ha) | Herbicidal activity, PANDI (PANDI; 0.004 kg/ha)
70 % inhibition: Herbicidal activity, GOSHI (GOSHI; 1.000 kg/ha)
100 % inhibition: Herbicidal activity, ORYSA (ORYSA; 1.000 kg/ha) | Herbicidal activity, ORYSA (ORYSA; 1.250 kg/ha) | Herbicidal activity, SORBI (SORBI; 1.000 kg/ha) | Herbicidal activity, SORBI (SORBI; 1.250 kg/ha) | Herbicidal activity, ECHOR (ECHOR; 0.063 kg/ha) | Herbicidal activity, ECHOR (ECHOR; 1.000 kg/ha) | Herbicidal activity, ECHOR (ECHOR; 1.250 kg/ha) | Herbicidal activity, ZEAMX (ZEAMX; 0.063 kg/ha) | Herbicidal activity, ZEAMX (ZEAMX; 1.000 kg/ha) | Herbicidal activity, ZEAMX (ZEAMX; 1.250 kg/ha) | Herbicidal activity, TRZAW (TRZAW; 1.000 kg/ha) | Herbicidal activity, TRZAW (TRZAW; 1.250 kg/ha) | Herbicidal activity, DIGSA (DIGSA; 0.004 kg/ha) | Herbicidal activity, DIGSA (DIGSA; 0.016 kg/ha) | Herbicidal activity, DIGSA (DIGSA; 0.063 kg/ha) | Herbicidal activity, DIGSA (DIGSA; 1.000 kg/ha) | Herbicidal activity, DIGSA (DIGSA; 1.250 kg/ha) | Herbicidal activity, BROJA (BROJA; 1.000 kg/ha) | Herbicidal activity, BROJA (BROJA; 1.250 kg/ha) | Herbicidal activity, PANDI (PANDI; 0.063 kg/ha) | Herbicidal activity, PANDI (PANDI; 1.000 kg/ha) | Herbicidal activity, PANDI (PANDI; 1.250 kg/ha)
90 % inhibition: Herbicidal activity, ECHOR (ECHOR; 0.016 kg/ha)
60 % inhibition: Herbicidal activity, GLXMX (GLXMX; 1.000 kg/ha) | Herbicidal activity, SORBI (SORBI; 0.063 kg/ha) | Herbicidal activity, BROJA (BROJA; 0.063 kg/ha)
80 % inhibition: Herbicidal activity, ECHOR (ECHOR; 0.004 kg/ha)
20 % inhibition: Herbicidal activity, ORYSA (ORYSA; 0.016 kg/ha)
30 % inhibition: Herbicidal activity, GLXMX (GLXMX; 0.063 kg/ha)
